Results taken from US5502164A, “Peptide compounds having therapeutic activity” (priority 1992, dated 1996).
Where a SMILES comes first, the peptide text is derived from it. [ ]: non-standard residue; d: D form. The star is where a group is joined. dNMeD = CN[C@H](CC(=O)O)C(=O)O; Nle = CCCC[C@H](N)C(=O)O; X1 = O=C(Cc1ccc(O)cc1)*

Biological target: T1, CCK-A receptors in rat pancreatic membranes (Rattus norvegicus, UniProt P30551)
T1 construct: CCK-A receptors in rat pancreatic membranes; from tissue; host or cells: rat pancreas (membranes)
T1 sequence (P30551 1-444): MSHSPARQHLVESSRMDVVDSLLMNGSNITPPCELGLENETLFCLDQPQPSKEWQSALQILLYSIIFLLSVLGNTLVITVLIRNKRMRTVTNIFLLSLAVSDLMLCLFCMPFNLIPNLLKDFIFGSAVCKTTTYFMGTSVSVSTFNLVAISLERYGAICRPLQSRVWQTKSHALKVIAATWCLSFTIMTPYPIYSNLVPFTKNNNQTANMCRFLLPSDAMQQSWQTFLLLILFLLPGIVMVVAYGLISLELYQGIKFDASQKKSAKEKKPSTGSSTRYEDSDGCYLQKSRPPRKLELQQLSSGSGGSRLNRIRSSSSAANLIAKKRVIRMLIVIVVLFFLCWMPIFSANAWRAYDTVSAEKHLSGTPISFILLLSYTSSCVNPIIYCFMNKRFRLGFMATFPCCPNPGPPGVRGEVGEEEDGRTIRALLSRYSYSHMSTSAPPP
Experiment: Test B: CCK-A binding
Details: against Bolton Hunter 125I-CCK-8 and 3H-L364718, read-out: binding constant (Ki) at CCK-A receptors
Procedure: Evaluation of a test compound for its ability to bind to CCK-A receptors in rat pancreatic membranes is measured against the binding of Bolton Hunter^125 I-CCK-8 and ^3 H-L364718 to rat pancreas according to the procedures of Chang, Lotti, Chan and Kunkel (Molecular Pharmacology, 30:212-216, 1986).

CCCC[C@H](NC(=O)Cc1ccc(O)cc1)C(=O)NCC(=O)N[C@@H](Cc1c[nH]c2ccccc12)C(=O)N[C@@H](CCCC)C(=O)N(C)[C@H](CC(=O)O)C(=O)N[C@@H](Cc1ccccc1)C(N)=O [Example 49, Hpa-Ahx-Gly-Trp-Ahx-MeDAsp-Phe-NH2] (X1-[Nle]GW[Nle][dNMeD]F-NH2) gave a Ki of 0.03 nM.
